According to ChEMBL document CHEMBL3885881, “DrugMatrix”:

Species on record: Rattus norvegicus
Test: DrugMatrix - Regimen: Daily Repeat
Format: toxicity, organism-based, Sprague-Dawley
Set-up: regimen Daily Repeat, gender Male, age 6-8 weeks
Conditions: in vivo, po, route oral GAVAGE, vehicle .5 % CMC; for BASOPHIL / EOSINOPHIL / ERYTHROCYTE COUNT / HEMATOCRIT / HEMOGLOBIN / LEUKOCYTE COUNT / LYMPHOCYTE / MEAN CORPUSCULAR HEMOGLOBIN / MEAN CORPUSCULAR HEMOGLOBIN CONCENTRATION / MEAN CORPUSCULAR VOLUME / MONOCYTE / NEUTROPHIL / PLATELET COUNT: tissue Blood; for ALANINE AMINOTRANSFERASE / ALBUMIN / ALKALINE PHOSPHATASE / ASPARTATE AMINOTRANSFERASE / BLOOD UREA NITROGEN / CHLORIDE / CHOLESTEROL / CREATINE PHOSPHOKINASE / CREATININE / GLUCOSE / PHOSPHORUS / POTASSIUM / SODIUM / TOTAL BILIRUBIN / TOTAL PROTEIN: tissue Plasma
[1] = 40 mg/kg, 72 h, dose level Low, time 3 day
[2] = 40 mg/kg, 120 h, dose level Low, time 5 day
[3] = 99 mg/kg, 72 h, dose level High, time 3 day
[4] = 99 mg/kg, 120 h, dose level High, time 5 day

SMILES: CO[C@H]1/C=C/O[C@@]2(C)Oc3c(C)c(O)c4c(O)c(c(/C=N/N5CCN(C)CC5)c(O)c4c3C2=O)NC(=O)/C(C)=C\C=C\[C@H](C)[C@H](O)[C@@H](C)[C@@H](O)[C@@H](C)[C@H](OC(C)=O)[C@@H]1C [RIFAMPIN]
- BASOPHIL [1]: 0%
- EOSINOPHIL [1]: 0%
- ERYTHROCYTE COUNT [1]: 6.01 x10E6/uL
- HEMATOCRIT [1]: 36.73%
- HEMOGLOBIN [1]: 14.33 G/DL
- LEUKOCYTE COUNT [1]: 9.07 x10E3/uL
- LYMPHOCYTE [1]: 88%
- MEAN CORPUSCULAR HEMOGLOBIN [1]: 23.83 pg
- MEAN CORPUSCULAR HEMOGLOBIN CONCENTRATION [1]: 39.03 G/DL
- MEAN CORPUSCULAR VOLUME [1]: 61.1 fL
- MONOCYTE [1]: 2.33%
- NEUTROPHIL [1]: 9.67%
- PLATELET COUNT [1]: 1111.33 x10E3/uL
- ALANINE AMINOTRANSFERASE [1]: 36 u/L
- ALBUMIN [1]: 3.6 G/DL
- ALKALINE PHOSPHATASE [1]: 274 u/L
- ASPARTATE AMINOTRANSFERASE [1]: 60 u/L
- BLOOD UREA NITROGEN [1]: 9 mg/dL
- CHLORIDE [1]: 108 MEQ/L
- CHOLESTEROL [1]: 63.33 mg/dL
- CREATINE PHOSPHOKINASE [1]: 115.33 u/L
- CREATININE [1]: 0.43 mg/dL
- GLUCOSE [1]: 170.33 mg/dL
- PHOSPHORUS [1]: 11.3 mg/dL
- POTASSIUM [1]: 6.6 MEQ/L
- SODIUM [1]: 152.67 MEQ/L
- TOTAL BILIRUBIN [1]: 0.33 mg/dL
- TOTAL PROTEIN [1]: 5.73 G/DL
- BASOPHIL [2]: 0%
- EOSINOPHIL [2]: 0%
- ERYTHROCYTE COUNT [2]: 6.22 x10E6/uL
- HEMATOCRIT [2]: 36.5%
- HEMOGLOBIN [2]: 14.57 G/DL
- LEUKOCYTE COUNT [2]: 14.23 x10E3/uL
- LYMPHOCYTE [2]: 89.33%
- MEAN CORPUSCULAR HEMOGLOBIN [2]: 23.47 pg
- MEAN CORPUSCULAR HEMOGLOBIN CONCENTRATION [2]: 39.93 G/DL
- MEAN CORPUSCULAR VOLUME [2]: 58.8 fL
- MONOCYTE [2]: 2.67%
- NEUTROPHIL [2]: 8%
- PLATELET COUNT [2]: 1082.67 x10E3/uL
- ALANINE AMINOTRANSFERASE [2]: 42.33 u/L
- ALBUMIN [2]: 3.7 G/DL
- ALKALINE PHOSPHATASE [2]: 325 u/L
- ASPARTATE AMINOTRANSFERASE [2]: 62.67 u/L
- BLOOD UREA NITROGEN [2]: 13.67 mg/dL
- CHLORIDE [2]: 107.33 MEQ/L
- CHOLESTEROL [2]: 78.33 mg/dL
- CREATINE PHOSPHOKINASE [2]: 142 u/L
- CREATININE [2]: 0.57 mg/dL
- GLUCOSE [2]: 180.33 mg/dL
- PHOSPHORUS [2]: 10.97 mg/dL
- POTASSIUM [2]: 6.63 MEQ/L
- SODIUM [2]: 150.33 MEQ/L
- TOTAL BILIRUBIN [2]: 0.3 mg/dL
- TOTAL PROTEIN [2]: 6.03 G/DL
- BASOPHIL [3]: 0%
- EOSINOPHIL [3]: 0.33%
- ERYTHROCYTE COUNT [3]: 5.7 x10E6/uL
- HEMATOCRIT [3]: 35.03%
- HEMOGLOBIN [3]: 13.93 G/DL
- LEUKOCYTE COUNT [3]: 12.7 x10E3/uL
- LYMPHOCYTE [3]: 89%
- MEAN CORPUSCULAR HEMOGLOBIN [3]: 24.47 pg
- MEAN CORPUSCULAR HEMOGLOBIN CONCENTRATION [3]: 39.77 G/DL
- MEAN CORPUSCULAR VOLUME [3]: 61.5 fL
- MONOCYTE [3]: 2%
- NEUTROPHIL [3]: 8.67%
- PLATELET COUNT [3]: 1047.33 x10E3/uL
- ALANINE AMINOTRANSFERASE [3]: 41 u/L
- ALBUMIN [3]: 3.8 G/DL
- ALKALINE PHOSPHATASE [3]: 360.33 u/L
- ASPARTATE AMINOTRANSFERASE [3]: 60 u/L
- BLOOD UREA NITROGEN [3]: 10.67 mg/dL
- CHLORIDE [3]: 106.67 MEQ/L
- CHOLESTEROL [3]: 93.67 mg/dL
- CREATINE PHOSPHOKINASE [3]: 139 u/L
- CREATININE [3]: 0.43 mg/dL
- GLUCOSE [3]: 166.33 mg/dL
- PHOSPHORUS [3]: 11.6 mg/dL
- POTASSIUM [3]: 6.4 MEQ/L
- SODIUM [3]: 153 MEQ/L
- TOTAL BILIRUBIN [3]: 0.3 mg/dL
- TOTAL PROTEIN [3]: 6.1 G/DL
- BASOPHIL [4]: 0%
- EOSINOPHIL [4]: 0.33%
- ERYTHROCYTE COUNT [4]: 5.79 x10E6/uL
- HEMATOCRIT [4]: 34.87%
- HEMOGLOBIN [4]: 13.73 G/DL
- LEUKOCYTE COUNT [4]: 17.13 x10E3/uL
- LYMPHOCYTE [4]: 85%
- MEAN CORPUSCULAR HEMOGLOBIN [4]: 23.73 pg
- MEAN CORPUSCULAR HEMOGLOBIN CONCENTRATION [4]: 39.4 G/DL
- MEAN CORPUSCULAR VOLUME [4]: 60.23 fL
- MONOCYTE [4]: 2%
- NEUTROPHIL [4]: 12.67%
- PLATELET COUNT [4]: 1010.67 x10E3/uL
- ALANINE AMINOTRANSFERASE [4]: 46 u/L
- ALBUMIN [4]: 3.6 G/DL
- ALKALINE PHOSPHATASE [4]: 384.33 u/L
- ASPARTATE AMINOTRANSFERASE [4]: 64.33 u/L
- BLOOD UREA NITROGEN [4]: 11.33 mg/dL
- CHLORIDE [4]: 108.33 MEQ/L
- CHOLESTEROL [4]: 75 mg/dL
- CREATINE PHOSPHOKINASE [4]: 143 u/L
- CREATININE [4]: 0.5 mg/dL
- GLUCOSE [4]: 177.67 mg/dL
- PHOSPHORUS [4]: 11.1 mg/dL
- POTASSIUM [4]: 6.3 MEQ/L
- SODIUM [4]: 149.33 MEQ/L
- TOTAL BILIRUBIN [4]: 0.37 mg/dL
- TOTAL PROTEIN [4]: 5.67 G/DL
